Where a name gives a salt, the structure may show the parent alone.
Legend:
[1] = system: THP1/LXR-Luc cells; assay: THP1/LXR-Luc luciferase reporter bioassay; assay type: cell-based; conditions: Homo sapiens, THP-1, 48 hours; for EC50: read-out: Activation of THP1/LXR-Luc cells: EC50; for Emax: relative to maximum activation of free payload 9d, read-out: Activation of THP1/LXR-Luc cells: Fold of activation
From the text: The fold activation in the cell-based assays (as described in Example 68, below) was defined based on the maximum activation of the free payload 9d.
A bioassay was developed to assess the activity of LXR agonists after internalization of an agonist or of a ncADC into cells and binding to LXR, a nuclear receptor, using a commercially available LXR reporter (referred to as LXR-Luc) that contains the firefly luciferase gene under control by minimal CMV promoter and tandem repeats of the LXR transcriptional response element. For this assay, a THP1 cell line, which is a human monocytic leukaemia line, was engineered to express full length human Her2 (expressing amino acids M1 through V1255 of accession number NP_004439.2). The subsequent stable cell line was further transduced with a Cignal LXR Luc Reporter (Qiagen, Cat # CLS-7041L). The resulting stable cell line is referred to herein as THP1/Her2/LXR-Luc. The Her2 cell surface expression on THP1/Her2/LXR-Luc cell line was confirmed by FACS (data not shown).
Additionally, a THP1 cell line was transduced with a Cignal LXR Luc Reporter (Qiagen, Cat # CLS-7041L) without the addition of Her2. The resulting stable cell line is referred to herein as THP1/LXR-Luc. All of the antibodies used in the subsequent bioassays were assessed for their ability to internalize and release a payload on the bioassay cell line used.
This example assessed the ability of the LXR agonists provided herein, reference compounds, and anti-Her2 antibody-LXR ncADC to activate LXR. The samples were tested in the THP1/LXR-Luc/Her2 bioassay. For the assay, either THP1/LXR-Luc cells or THP1/LXR-Luc/Her2 cells were seeded onto white 96 well plates at 30,000 cells/well in media containing RPMI supplemented with 10% FBS and pencillin/streptomycin (complete media). Subsequently 3-fold serial dilutions of antibody drug conjugates, unconjugated antibodies, or free payloads were added to the cells at final concentration ranging from 100 nM to 0.01 nM. After 48-hour or 72-hour incubation, luciferase activity was determined after the addition of One-Glo™ reagent (Promega, Cat # E6130) to each well of cells. Relative light units (RLUs) were measured on a Victor luminometer (PerkinElmer) and the EC5o values were determined using a four-parameter logistic equation over a 10-point dose response curve (GraphPad Prism) (FIG. 15). The fold activation is calculated based on the maximum activation of the free payload 9d.

[2] = molecular target: T1, LXR alpha (Homo sapiens, UniProt Q13133); assay: LanthaScreen TR-FRET LXR alpha Coactivator Assay (cell-free binding); conditions: TR-FRET, 12-point curve; read-out: Cell free binding LXRα IC50
T1 construct: LXR alpha or beta LBD-GST; purchased ThermoFisher PV4655
T1 sequence (Q13133 209-447 limits assumed): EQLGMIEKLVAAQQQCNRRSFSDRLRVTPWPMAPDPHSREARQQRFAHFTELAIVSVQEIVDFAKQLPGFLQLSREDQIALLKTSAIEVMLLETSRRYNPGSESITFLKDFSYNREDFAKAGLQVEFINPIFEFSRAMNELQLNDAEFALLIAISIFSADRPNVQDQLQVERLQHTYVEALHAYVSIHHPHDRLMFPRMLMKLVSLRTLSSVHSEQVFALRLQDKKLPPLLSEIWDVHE
Description: (§1) To evaluate the ability of novel LXR agonists to bind to the LXR alpha and beta receptor, a cell-free binding assay was performed using a LanthaScreen TR-FRET LXR alpha Coactivator Assay Kit (ThermoFisher, Cat # PV4655) and LXR beta Coactivator Assay Kit (ThermoFisher, Cat # PV4658). The assay was performed according to the manufacturer's instructions. Briefly, a 3-fold serial dilution of LXR agonists were prepared in 100% DMSO starting at 100 μM (100× of final). Serial dilutions were further diluted 50-fold in nuclear receptor buffer F with 5 mM DTT, and transferred to a 384-well assay plate. Next, Fluorescein-D22, LXR alpha or beta LBD-GST, and Tb anti-GST antibody was sequentially added to 384-well assay plate. The plate was then incubated at rt for 2.5 hours while being protected from light. […] The IC50 values were determined using a four-parameter logistic equation over a 12-point response curve (GraphPad Prism).

[3] = molecular target: T2, LXR beta (Homo sapiens, UniProt P55055); assay: LanthaScreen TR-FRET LXR beta Coactivator Assay (cell-free binding); conditions: TR-FRET, 12-point curve; read-out: Cell free binding LXRβ IC50
T2 construct: LXR alpha or beta LBD-GST; purchased ThermoFisher PV4658
T2 sequence (P55055 222-460 limits assumed): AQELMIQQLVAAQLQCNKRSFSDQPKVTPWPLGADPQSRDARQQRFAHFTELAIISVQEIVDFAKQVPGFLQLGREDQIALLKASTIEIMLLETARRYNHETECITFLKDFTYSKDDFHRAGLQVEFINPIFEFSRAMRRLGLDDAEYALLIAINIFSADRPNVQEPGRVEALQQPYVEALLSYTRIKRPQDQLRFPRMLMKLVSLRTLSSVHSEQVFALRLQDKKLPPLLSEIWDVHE
Description: as §1

| Structure (SMILES) | EC50 [1] [µM] | Emax [1] [%] | IC50 [2] [µM] | IC50 [3] [µM] |
| --- | --- | --- | --- | --- |
| C[C@]1(C(=O)NC(=O)[C@@]2(C)CCC[C@]3(C)c4cc(O)ccc4CC[C@@H]23)CCC[C@]2(C)c3cc(O)ccc3CC[C@@H]12 [Compound 9a, (1S,4aS,10aR)-6-Hydroxy-N-((1S,4aS,10aR)-6-hydroxy-1,4a-dimethyl-1,2,3,4,4a,9,10,10a-octahydrophenanthrene-1-carbonyl)-1,4a-dimethyl-1,2,3,4,4a,9,10,10a-octahydrophenanthrene-1-carboxamide] | 0.001 to 0.01 | > 75 | – | – |
| C[C@]1(C(=O)NC(=O)[C@@]2(C)CCC[C@]3(C)c4cc(OCCO)ccc4CC[C@@H]23)CCC[C@]2(C)c3cc(O)ccc3CC[C@@H]12 [Compound 9b, (1S,4aS,10aR)-6-Hydroxy-N-((1S,4aS,10aR)-6-(2-hydroxyethoxy)-1,4a-dimethyl-1,2,3,4,4a,9,10,10a-octahydrophenanthrene-1-carbonyl)-1,4a-dimethyl-1,2,3,4,4a,9,10,10a-octahydrophenanthrene-1-carboxamide] | 0.001 to 0.01 | > 75 | < 0.01 | < 0.01 |
| C[C@]1(C(=O)NC(=O)[C@@]2(C)CCC[C@]3(C)c4cc(OCCN)ccc4CC[C@@H]23)CCC[C@]2(C)c3cc(O)ccc3CC[C@@H]12 [Compound 9c, (1S,4aS,10aR)-6-(2-Aminoethoxy)-N-((1S,4aS,10aR)-6-hydroxy-1,4a-dimethyl-1,2,3,4,4a,9,10,10a-octahydrophenanthrene-1-carbonyl)-1,4a-dimethyl-1,2,3,4,4a,9,10,10a-octahydrophenanthrene-1-carboxamide] | 0.01 to 0.1 | > 75 | 0.01 to 0.1 | < 0.01 |
| C[C@]1(C(=O)NC(=O)[C@@]2(C)CCC[C@]3(C)c4cc(N5CCNCC5)ccc4CC[C@@H]23)CCC[C@]2(C)c3cc(O)ccc3CC[C@@H]12 [Compound 9e, (1S,4aS,10aR)—N-((1S,4aS,10aR)-1,4a-Dimethyl-6-(piperazin-1-yl)-1,2,3,4,4a,9,10,10a-octahydrophenanthrene-1-carbonyl)-6-hydroxy-1,4a-dimethyl-1,2,3,4,4a,9,10,10a-octahydrophenanthrene-1-carboxamide] | 0.001 to 0.01 | > 75 | < 0.01 | < 0.01 |
| CN(C)c1ccc2c(c1)[C@@]1(C)CCC[C@](C)(C(=O)NC(=O)[C@@]3(C)CCC[C@]4(C)c5cc(O)ccc5CC[C@@H]34)[C@@H]1CC2 [Compound 9f, (1S,4aS,10aR)-6-(Dimethylamino)-N-((1S,4aS,10aR)-6-hydroxy-1,4a-dimethyl-1,2,3,4,4a,9,10,10a-octahydrophenanthrene-1-carbonyl)-1,4a-dimethyl-1,2,3,4,4a,9,10,10a-octahydrophenanthrene-1-carboxamide] | 0.001 to 0.01 | > 75 | < 0.01 | < 0.01 |
| C[C@]1(C(=O)NC(=O)[C@@]2(C)CCC[C@]3(C)c4cc(NC(=O)CCN)ccc4CC[C@@H]23)CCC[C@]2(C)c3cc(O)ccc3CC[C@@H]12 [Compound 9i, (1S,4aS,10aR)-6-(3-Aminopropanamido)-N-((1S,4aS,10aR)-6-hydroxy-1,4a-dimethyl-1,2,3,4,4a,9,10,10a-octahydrophenanthrene-1-carbonyl)-1,4a-dimethyl-1,2,3,4,4a,9,10,10a-octahydrophenanthrene-1-carboxamide] | 0.01 to 0.1 | 25 to 75 | < 0.01 | < 0.01 |
| CNCC(=O)Nc1ccc2c(c1)[C@@]1(C)CCC[C@](C)(C(=O)NC(=O)[C@@]3(C)CCC[C@]4(C)c5cc(O)ccc5CC[C@@H]34)[C@@H]1CC2 [Compound 9k, (1S,4aS,10aR)—N-((1S,4aS,10aR)-1,4a-Dimethyl-6-(2-(methylamino)acetamido)-1,2,3,4,4a,9,10,10a-octahydrophenanthrene-1-carbonyl)-6-hydroxy-1,4a-dimethyl-1,2,3,4,4a,9,10,10a-octahydrophenanthrene-1-carboxamide; Trifluoroacetic Acid Salt] | 0.001 to 0.01 | > 75 | 0.01 to 0.1 | < 0.01 |
| C[C@]1(C(=O)NC(=O)[C@@]2(C)CCC[C@]3(C)c4cc(NC(=O)[C@@H](N)Cc5c[nH]cn5)ccc4CC[C@@H]23)CCC[C@]2(C)c3cc(O)ccc3CC[C@@H]12 [Compound 9m, (1S,4aS,10aR)—N-[(1S,4aS,10aR)-6-Hydroxy-1,4a-dimethyl-1,2,3,4,4a,9,10,10a-octahydrophenanthrene-1-carbonyl]-6-[(2S)-2-amino-3-(1H-imidazol-4-yl)propanamido]-1,4a-dimethyl-1,2,3,4,4a,9,10,10a-octahydrophenanthrene-1-carboxamide; trifluoroacetic acid salt] | 0.001 to 0.01 | > 75 | 0.01 to 0.1 | < 0.01 |
| C[C@]1(C(=O)NC(=O)[C@@]2(C)CCC[C@]3(C)c4cc(NC(=O)[C@@H](N)CC(=O)O)ccc4CC[C@@H]23)CCC[C@]2(C)c3cc(O)ccc3CC[C@@H]12 [Compound 9n, (3S)-3-Amino-3-{[(4bS,8S,8aR)-8-{[(1S,4aS,10aR)-6-hydroxy-1,4a-dimethyl-1,2,3,4,4a,9,10,10a-octahydrophenanthrene-1-carbonyl]carbamoyl}-4b,8-dimethyl-4b,5,6,7,8,8a,9,10-octahydrophenanthren-3-yl]carbamoyl}propanoic Acid] | ≤ 0.001 | > 75 | 0.01 to 0.1 | < 0.01 |
| C[C@]1(C(=O)NC(=O)[C@@]2(C)CCC[C@]3(C)c4cc(CN)ccc4CC[C@@H]23)CCC[C@]2(C)c3cc(O)ccc3CC[C@@H]12 [Compound 9p, (1S,4aS,10aR)-6-(Aminomethyl)-N-((1S,4aS,10aR)-6-hydroxy-1,4a-dimethyl-1,2,3,4,4a,9,10,10a-octahydrophenanthrene-1-carbonyl)-1,4a-dimethyl-1,2,3,4,4a,9,10,10a-octahydrophenanthrene-1-carboxamide; Trifluoroacetic Acid Salt] | 0.001 to 0.01 | > 75 | 0.01 to 0.1 | < 0.01 |
| C[C@]1(CNC(=O)[C@@]2(C)CCC[C@]3(C)c4cc(O)ccc4CC[C@@H]23)CCC[C@]2(C)c3cc(O)ccc3CC[C@@H]12 [Compound 9u, (1S,4aS,10aR)—N-{[(1S,4aS,10aR)-6-Hydroxy-1,4a-dimethyl-1,2,3,4,4a,9,10,10a-octahydrophenanthren-1-yl]methyl}-6-hydroxy-1,4a-dimethyl-1,2,3,4,4a,9,10,10a-octahydrophenanthrene-1-carboxamide] | 0.001 to 0.01 | 25 to 75 | – | – |
| O=S(=O)(c1ccccc1)N(CC(F)(F)F)c1ccc(C(O)(C(F)(F)F)C(F)(F)F)cc1 [Compound T0901317, reference compound] | 0.01 to 0.1 | > 75 | – | – |

From US12338199B2, “Bis-octahydrophenanthrene carboxamides and protein conjugates thereof” (REGENERON PHARMACEUTICALS, INC., priority 2017, dated 2025)
